Like-named read-outs stand apart in the source and are kept apart here. Where a SMILES comes first, the peptide text is derived from it. Bridges are numbered along the chain shown (N, C = ends). [ ]: non-standard residue; d: D form. The star is where a group is joined. pY = N[C@@H](Cc1ccc(OP(=O)(O)O)cc1)C(=O)O; Benzoyl(4-F) = O=C(c1ccc(F)cc1)*; R8 = C=CCCCCCC[C@@](C)(N)C(=O)O; Cit = NC(=O)NCCC[C@H](N)C(=O)O; Chg = N[C@H](C(=O)O)C1CCCCC1; S5 = C=CCCC[C@](C)(N)C(=O)O; Nle = CCCC[C@H](N)C(=O)O; Aib = CC(C)(N)C(=O)O
Tests used:
MDMX = biological target: T1, MDMX (Homo sapiens, UniProt O15151); assay: Competitive fluorescence polarization assay for MDMX; format: binding; settings: competitive FP assay; for IC50: read-out: IC50 (MDMX)
T1 sequence (O15151 1-125): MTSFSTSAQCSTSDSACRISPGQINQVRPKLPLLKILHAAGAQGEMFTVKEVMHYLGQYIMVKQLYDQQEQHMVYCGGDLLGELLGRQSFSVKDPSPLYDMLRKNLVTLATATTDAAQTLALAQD
Experimental: Dilute MDMX (In-house, 40 kD) into FP buffer (High salt buffer-200 mM Nacl, 5 mM CHAPS, pH 7.5.) to make 300 nM (2×) working stock solution. • 2. […] Dilute 1 mM (in 100% DMSO) of FAM labeled linear peptide with DMSO to 100 μM (dilution 1:10). Then, dilute from 100 μM to 10 μM with water (dilution 1:10) and then dilute with FP buffer from 10 μM to 40 nM (dilution 1:250). This is the working solution which will be a 10 nM concentration in well (dilution 1:4). Keep the diluted FAM labeled peptide in the dark until use. • 4. […] Dilute 10 mM (in 100% DMSO) with DMSO to 5 mM (dilution 1:2). Then, dilute from 5 mM to 500 μM with H2O (dilution 1:10) and then dilute with FP buffer from 500 μM to 20 μM (dilution 1:25). […] Transfer 10 μl of serial diluted unlabeled peptides to each well which is filled with 20 μl of 300 nM of protein. • 7. Add 10 μl of 10 nM (4×) of FAM labeled peptide into each well and incubate for 3 hr to read.

MDM2 = MDM2 (Homo sapiens, UniProt Q00987); assay: Competitive fluorescence polarization assay for MDM2; format: binding; settings: competitive FP assay, MDM2; for IC50: read-out: IC50 (MDM2)
Sequence of MDM2 (Q00987 1-125): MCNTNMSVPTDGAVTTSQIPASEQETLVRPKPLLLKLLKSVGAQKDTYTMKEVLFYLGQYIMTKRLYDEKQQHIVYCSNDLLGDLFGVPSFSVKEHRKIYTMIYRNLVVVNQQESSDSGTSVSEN

Row | SMILES | Ki (MDMX; Ki (MDMX)) [nM] | Ki (MDM2; Ki (MDM2)) [nM] | Ki (MDMX; read-out: Ki (MDMX)) [nM] | Ki (MDM2; read-out: Ki (MDM2)) [nM] | IC50 (MDMX) [nM] | IC50 (MDM2) [nM]
1 | CC(=O)N[C@@H](CC(C)C)C(=O)N[C@H](C(=O)N[C@@H](Cc1ccccc1)C(=O)N[C@]1(C)CCCCCCC=CCCC[C@@](C)(C(=O)N[C@@H](C)C(=O)N[C@@H](C)C(=O)N[C@@H](C)C(=O)N[C@@H](C)C(=O)N[C@@H](C)C(=O)N[C@H](C)C(N)=O)NC(=O)[C@H](CC(C)C)NC(=O)[C@H](CCC(N)=O)NC(=O)[C@H](C)NC(=O)[C@H](Cc2c[nH]c3ccccc23)NC(=O)[C@H](Cc2ccc(OP(=O)(O)O)cc2)NC(=O)[C@H](CCC(=O)O)NC1=O)[C@@H](C)O [compound 615] (Ac-LTF[R8]E[pY]WAQL[S5]AAAAA[dA]-NH2; staple 4-11) | < 10 | < 10 | – | – | – | –
2 | CC(=O)N[C@@H](CC(C)C)C(=O)N[C@H](C(=O)N[C@@H](Cc1ccccc1)C(=O)N[C@]1(C)CCCCCCC=CCCC[C@@](C)(C(=O)N[C@@H](C)C(=O)N[C@@H](C)C(=O)N[C@@H](C)C(=O)N[C@@H](C)C(=O)N[C@@H](C)C(=O)N[C@H](C)C(N)=O)NC(=O)[C@H](CC(C)C)NC(=O)[C@H](CCCNC(N)=O)NC(=O)[C@H](C)NC(=O)[C@H](Cc2c[nH]c3ccccc23)NC(=O)[C@H](Cc2ccc(O)cc2)NC(=O)[C@H](CCC(=O)O)NC1=O)[C@@H](C)O [compound 612] (Ac-LTF[R8]EYWA[Cit]L[S5]AAAAA[dA]-NH2; staple 4-11) | – | – | 10 to 100 | < 10 | – | –
3 | CC(=O)N[C@@H](CC(C)C)C(=O)N[C@H](C(=O)N[C@@H](Cc1ccccc1)C(=O)N[C@]1(C)CCCCCC/C=C/CCC[C@@](C)(C(=O)N[C@@H](C)C(=O)NC(C)(C)C(=O)N[C@@H](C)C(=O)N[C@@H](C)C(=O)N[C@@H](C)C(=O)N[C@H](C)C(N)=O)NC(=O)[C@H](CC(C)C)NC(=O)[C@H](CCC(N)=O)NC(=O)[C@H](C)NC(=O)[C@H](Cc2c[nH]c3ccccc23)NC(=O)[C@H](Cc2ccc(O)cc2)NC(=O)[C@H](CCC(=O)O)NC1=O)[C@@H](C)O [compound 562] (Ac-LTF[R8]EYWAQL[S5]A[Aib]AAA[dA]-NH2; staple (E) 4-11) | – | – | 10 to 100 | 10 to 100 | – | –
4 | CC(=O)N[C@@H](CC(C)C)C(=O)N[C@H](C(=O)N[C@@H](Cc1ccccc1)C(=O)N[C@]1(C)CCCCCCC=CCCC[C@@](C)(C(=O)N[C@@H](CO)C(=O)N[C@@H](C)C(=O)N[C@@H](C)C(N)=O)NC(=O)[C@H](CC2CCC2)NC(=O)[C@H](CCC(N)=O)NC(=O)[C@H](CO)NC(=O)[C@H](Cc2c[nH]c3ccccc23)NC(=O)[C@H](Cc2ccc(O)cc2)NC(=O)[C@H](CCC(=O)O)NC1=O)[C@@H](C)O (single isomer, unassigned) [compound 293] | – | – | 10 to 100 | < 10 | 10 to 100 | < 10
5 | CC[C@H](C)[C@H](NC(=O)[C@H](Cc1c[nH]cn1)NC(=O)[C@H](C)NC(=O)[C@]1(C)CCCC=CCCCCCC[C@@](C)(NC(=O)[C@H](Cc2ccccc2)NC(=O)[C@@H](NC(=O)[C@H](CC(C)C)NC(C)=O)[C@@H](C)O)C(=O)N[C@@H](CCC(=O)O)C(=O)N[C@@H](Cc2c[nH]cn2)C(=O)N[C@@H](Cc2c[nH]c3ccccc23)C(=O)N[C@@H](C)C(=O)N[C@@H](CCC(N)=O)C(=O)N[C@@H](CC(C)C)C(=O)N1)C(=O)N[C@H](C)C(N)=O (single isomer, unassigned) [compound 206] | – | – | 10 to 100 | < 10 | 100 to 1000 | 10 to 100
6 | CC(=O)N[C@@H](CC(C)C)C(=O)N[C@H](C(=O)N[C@@H](Cc1ccccc1)C(=O)N[C@]1(C)CCCCCCC=CCCC[C@@](C)(C(=O)N[C@@H](C)C(=O)N[C@@H](C)C(=O)N[C@@H](CC(C)C)C(=O)N[C@H](C)C(N)=O)NC(=O)[C@H](CC(C)C)NC(=O)[C@H](CCC(N)=O)NC(=O)[C@H](C)NC(=O)[C@H](Cc2c[nH]c3ccccc23)NC(=O)[C@H](Cc2ccc(O)cc2)NC(=O)[C@H](C)NC1=O)[C@@H](C)O (single isomer, unassigned) [compound 215] | – | – | 10 to 100 | < 10 | 100 to 1000 | 10 to 100
7 | CC(=O)N[C@@H](Cc1ccccc1)C(=O)N[C@]1(C)CCCCCCC=CCCC[C@@](C)(C(=O)N[C@@H](CCC(N)=O)C(=O)N[C@@H](Cc2c[nH]cn2)C(=O)N[C@H](C(=O)N[C@H](CC(C)C)C(N)=O)C2CCCCC2)NC(=O)[C@H](CC(C)C)NC(=O)[C@H](CCC(N)=O)NC(=O)[C@H](C(C)C)NC(=O)[C@H](Cc2c[nH]c3ccccc23)NC(=O)[C@H](Cc2ccc(O)cc2)NC(=O)[C@H](C)NC1=O [compound 40] (Ac-F[R8]AYWVQL[S5]QH[Chg][dL]-NH2; staple 2-9) | – | – | 10 to 100 | 100 to 1000 | 100 to 1000 | 100 to 1000
8 | CCCC[C@H](NC(=O)[C@H](C)NC(=O)[C@H](C)NC(=O)[C@]1(C)CCCC=CCCCCCC[C@@](C)(NC(=O)[C@H](Cc2ccccc2)NC(=O)[C@H](C)NC(=O)[C@H](C)NC(=O)[C@H](C)NC(C)=O)C(=O)N[C@@H](CCC(=O)O)C(=O)N[C@@H](Cc2ccc(O)cc2)C(=O)N[C@@H](Cc2c[nH]c3ccccc23)C(=O)N[C@@H](C)C(=O)N[C@@H](CCC(N)=O)C(=O)N[C@@H](CC(C)C)C(=O)N1)C(=O)N[C@@H](C)C(N)=O [compound 372] (Ac-AAAF[R8]EYWAQL[S5]AA[Nle]A-NH2; staple 5-12) | – | – | 10 to 100 | 10 to 100 | 100 to 1000 | 100 to 1000
9 | CC(C)C[C@H](NC(=O)c1ccc(F)cc1)C(=O)N[C@H](C(=O)N[C@@H](Cc1ccccc1)C(=O)N[C@]1(C)CCCCCCC=CCCC[C@@](C)(C(=O)N[C@@H](C)C(=O)N[C@@H](C)C(=O)N[C@@H](C)C(=O)N[C@@H](C)C(=O)N[C@@H](C)C(=O)N[C@H](C)C(N)=O)NC(=O)[C@H](CC(C)C)NC(=O)[C@H](CCC(N)=O)NC(=O)[C@H](C)NC(=O)[C@H](Cc2c[nH]c3ccccc23)NC(=O)[C@H](Cc2ccc(O)cc2)NC(=O)[C@H](CCC(=O)O)NC1=O)[C@@H](C)O [compound 596] ({Benzoyl(4-F)}-LTF[R8]EYWAQL[S5]AAAAA[dA]-NH2; staple 4-11) | 10 to 100 | < 10 | – | – | – | –
10 | CC(=O)N[C@@H](CC(C)C)C(=O)N[C@H](C(=O)N[C@@H](Cc1ccccc1)C(=O)N[C@]1(C)CCCCCCC=CCCC[C@@](C)(C(=O)N[C@@H](C)C(=O)N[C@@H](C)C(=O)N[C@@H](CC(C)C)C(=O)N[C@H](C)C(N)=O)NC(=O)[C@H](CC(C)C)NC(=O)[C@H](CCC(N)=O)NC(=O)[C@H](C)NC(=O)[C@H](Cc2c[nH]c3ccccc23)NC(=O)[C@H](Cc2c[nH]cn2)NC(=O)[C@H](CCC(=O)O)NC1=O)[C@@H](C)O (single isomer, unassigned) [compound 227] | – | – | 10 to 100 | < 10 | 100 to 1000 | < 10
11 | CC[C@H](C)[C@H](NC(=O)[C@H](Cc1c[nH]cn1)NC(=O)[C@H](C)NC(=O)[C@]1(C)CCCC=CCCCCCC[C@@](C)(NC(=O)[C@H](Cc2ccccc2)NC(=O)[C@@H](NC(=O)[C@H](CC(C)C)NC(C)=O)[C@@H](C)O)C(=O)N[C@@H](C)C(=O)N[C@@H](Cc2c[nH]cn2)C(=O)N[C@@H](Cc2c[nH]c3ccccc23)C(=O)N[C@@H](C)C(=O)N[C@@H](CCC(N)=O)C(=O)N[C@@H](CC(C)C)C(=O)N1)C(=O)N[C@H](C)C(N)=O [compound 207] (Ac-LTF[R8]AHWAQL[S5]AHI[dA]-NH2; staple 4-11) | – | – | 10 to 100 | < 10 | 100 to 1000 | < 10
12 | CC(=O)N[C@@H](CC(C)C)C(=O)N[C@H](C(=O)N[C@@H](Cc1ccccc1)C(=O)N[C@]1(C)CCCCCCC=CCCC[C@@](C)(C(=O)N[C@@H](CO)C(=O)N[C@@H](C)C(=O)N[C@@H](C)C(N)=O)NC(=O)[C@H](CC2CCC2)NC(=O)[C@H](CCC(N)=O)NC(=O)[C@H](C)NC(=O)[C@H](Cc2c[nH]c3ccccc23)NC(=O)[C@H](Cc2ccc(C(=O)O)cc2)NC(=O)[C@H](CCC(=O)O)NC1=O)[C@@H](C)O (single isomer, unassigned) [compound 291] | – | – | < 10 | < 10 | 10 to 100 | 10 to 100
13 | CC(=O)N[C@@H](CCC(=O)O)C(=O)N[C@H](C(=O)N[C@@H](Cc1ccccc1)C(=O)N[C@]1(C)CCCCCCC=CCCC[C@@](C)(C(=O)N[C@@H](CO)C(=O)N[C@@H](Cc2c[nH]c3ccccc23)C(=O)N[C@@H](C)C(N)=O)NC(=O)[C@H](CC(C)C)NC(=O)[C@H](CCC(N)=O)NC(=O)[C@H](C)NC(=O)[C@H](Cc2c[nH]c3ccccc23)NC(=O)[C@H](Cc2ccc(O)cc2)NC(=O)[C@H](C(C)C)NC1=O)[C@@H](C)O [compound 128] (Ac-ETF[R8]VYWAQL[S5]SWA-NH2; staple 4-11) | – | – | 10 to 100 | < 10 | 100 to 1000 | < 10
14 | CCCC[C@H](NC(=O)[C@H](C)NC(=O)[C@H](C)NC(=O)[C@]1(C)CCCC=CCCCCCC[C@@](C)(NC(=O)[C@H](Cc2ccccc2)NC(=O)[C@@H](NC(=O)[C@H](CC(C)C)NC(C)=O)[C@@H](C)O)C(=O)N[C@@H](C)C(=O)N[C@@H](Cc2ccc(O)cc2)C(=O)N[C@@H](Cc2c[nH]c3ccccc23)C(=O)N[C@@H](C)C(=O)N[C@@H](CCC(N)=O)C(=O)N[C@@H](CC(C)C)C(=O)N1)C(=O)N[C@@H](C)C(=O)N(C)CC(N)=O (single isomer, unassigned) [compound 410] | – | – | < 10 | < 10 | < 10 | < 10

Source: patent US8927500B2, “Peptidomimetic macrocycles” (Aileron Therapeutics, Inc., priority 2012, dated 2015)
